In US20220289751A1, “COMPOUND HAVING KDM5 INHIBITORY ACTIVITY AND PHARMACEUTICAL USE THEREOF” (ONO PHARMACEUTICAL CO., LTD., priority 2019, published 2022):
Like-named read-outs stand apart in the source and are kept apart here.

Assays:
KDM5A protein = biological target: T1, KDM5A protein (Homo sapiens, UniProt P29375); test: Biochemical KDM5A inhibition assay (HTRF)
T1 construct: purchased BPS Bioscience 50110
Method: Using 384-well white ProxiPlates (PerkinElmer), representative compounds were characterized for their inhibition of KDM5A using HTRF® technology (Cisbio Bioassays). Briefly, the test compounds, reference compounds, and DMSO control (typical compound concentration range 300 pM-10 μM, final assay concentration (FAC) of DMSO 0.5%) were added to 384-well plate by the Echo® acoustic dispensing platform (Labcyte). Three (3) μ1 of KDM5A protein (BPS Bioscience, Cat #50110)(10 or 20 nM FAC) in assay buffer (50 mM MES, 50 mM NaCl, 2 mM ascorbic acid, 0.01% v/v Tween 20, pH 6.5) was added to wells and plates were incubated for 10 minutes at room temperature. Then, 3 μl of biotin-labelled H3K4-me3 substrate (Anaspec Cat #AS-64357-1; 100 nM FAC), alpha-ketoglutaric acid ([…]) and Fe(II)SO4 (FAC 100 μM) in assay buffer was added and plates were incubated for 60 minutes at room temperature. The reaction was stopped with the addition of 6 μl of anti-H3-[…]-Eu(K) (Cisbio Bioassays Cat #61KA2KAE; 0.025 μg/ml FAC)+Streptavidin XL665 (Cisbio Bioassays Cat #610SAXLA; 0.5 μg/ml FAC) in HTRF detection buffer (Cisbio Bioassays Cat #62SDBRDD). The mixture was incubated for 90 minutes at room temperature before 340 nm excitation and measurement of dual emission at 620 nm and 665 nm. The raw data (a 665 nm and a 620 nm reading from each well) for individual assay plates were analyzed. The ratio of emissions was calculated using the following calculation: Ratio=(665 nm emission/620 nm emission)*10000. Using DMSO control (maximum response or 0% inhibition) and 1 μM reference control compound (minimum response or 100% inhibition), percentage inhibition values for each well were calculated using the median values of the minimum and maximum control wells and the following calculation: % Inhibition=(Well ratio-max control ratio)/(min control ratio-max control ratio)*100. Compound IC50 values were calculated from graphs of % inhibition plotted against compound concentration, using a four parameter curve fit.

[1] = Permeability in wild type MDCK cell lines (MDCK-WT); type: in vitro ADME; settings: dog, MDCK, pH 7.4, apical to basal, 10 μM test compound
Method: Wild type MDCKII cells were seeded onto an apical chamber 3 days prior to running the assay at a density of 2.3×10^5 cells per well. The integrity of cell monolayers was evaluated by examining the permeability of lucifer yellow assay using a Spectramax Gemini XS with excitation and emission at 426 nm and 538 nm respectively. Permeation of Lucifer Yellow should be ≤10×10^−6 cm/s for the experimental data to be accepted. The cell monolayers were preincubated in transport buffer (HBSS with CaCl2 and MgCl2)+25 mM HEPES, adjust to pH 7.4) at 37° C. or more than 20 min. Transport experiment was initiated by adding test compound solution (10 μM) to the apical chamber. Samples were obtained from basal chamber at 60 min, followed by addition of ice-cold acetonitrile containing internal standard. LC-MS/MS analysis was conducted as specified below. Standard calibration samples were prepared using the same matrix and analysed in the same manner. [table] […] Papp(cm/s)=(dCB/dt)×VB/(A×CA) dCB/dt is the slope of the cumulative concentration in basal side versus time VB is the volume of the basal compartment A is the area of the membrane surface area CA is the initial concentration in apical side

[2] = 20 nM enzyme concentration, read-out: IC50 value
[3] = comparative compounds, enzyme concentration not stated, read-out: IC50 values (μM) of comparative compound
[4] = comparative compounds, read-out: permeabilities in MDCK-WT of comparative compound

T1 sequence (P29375 whole entry): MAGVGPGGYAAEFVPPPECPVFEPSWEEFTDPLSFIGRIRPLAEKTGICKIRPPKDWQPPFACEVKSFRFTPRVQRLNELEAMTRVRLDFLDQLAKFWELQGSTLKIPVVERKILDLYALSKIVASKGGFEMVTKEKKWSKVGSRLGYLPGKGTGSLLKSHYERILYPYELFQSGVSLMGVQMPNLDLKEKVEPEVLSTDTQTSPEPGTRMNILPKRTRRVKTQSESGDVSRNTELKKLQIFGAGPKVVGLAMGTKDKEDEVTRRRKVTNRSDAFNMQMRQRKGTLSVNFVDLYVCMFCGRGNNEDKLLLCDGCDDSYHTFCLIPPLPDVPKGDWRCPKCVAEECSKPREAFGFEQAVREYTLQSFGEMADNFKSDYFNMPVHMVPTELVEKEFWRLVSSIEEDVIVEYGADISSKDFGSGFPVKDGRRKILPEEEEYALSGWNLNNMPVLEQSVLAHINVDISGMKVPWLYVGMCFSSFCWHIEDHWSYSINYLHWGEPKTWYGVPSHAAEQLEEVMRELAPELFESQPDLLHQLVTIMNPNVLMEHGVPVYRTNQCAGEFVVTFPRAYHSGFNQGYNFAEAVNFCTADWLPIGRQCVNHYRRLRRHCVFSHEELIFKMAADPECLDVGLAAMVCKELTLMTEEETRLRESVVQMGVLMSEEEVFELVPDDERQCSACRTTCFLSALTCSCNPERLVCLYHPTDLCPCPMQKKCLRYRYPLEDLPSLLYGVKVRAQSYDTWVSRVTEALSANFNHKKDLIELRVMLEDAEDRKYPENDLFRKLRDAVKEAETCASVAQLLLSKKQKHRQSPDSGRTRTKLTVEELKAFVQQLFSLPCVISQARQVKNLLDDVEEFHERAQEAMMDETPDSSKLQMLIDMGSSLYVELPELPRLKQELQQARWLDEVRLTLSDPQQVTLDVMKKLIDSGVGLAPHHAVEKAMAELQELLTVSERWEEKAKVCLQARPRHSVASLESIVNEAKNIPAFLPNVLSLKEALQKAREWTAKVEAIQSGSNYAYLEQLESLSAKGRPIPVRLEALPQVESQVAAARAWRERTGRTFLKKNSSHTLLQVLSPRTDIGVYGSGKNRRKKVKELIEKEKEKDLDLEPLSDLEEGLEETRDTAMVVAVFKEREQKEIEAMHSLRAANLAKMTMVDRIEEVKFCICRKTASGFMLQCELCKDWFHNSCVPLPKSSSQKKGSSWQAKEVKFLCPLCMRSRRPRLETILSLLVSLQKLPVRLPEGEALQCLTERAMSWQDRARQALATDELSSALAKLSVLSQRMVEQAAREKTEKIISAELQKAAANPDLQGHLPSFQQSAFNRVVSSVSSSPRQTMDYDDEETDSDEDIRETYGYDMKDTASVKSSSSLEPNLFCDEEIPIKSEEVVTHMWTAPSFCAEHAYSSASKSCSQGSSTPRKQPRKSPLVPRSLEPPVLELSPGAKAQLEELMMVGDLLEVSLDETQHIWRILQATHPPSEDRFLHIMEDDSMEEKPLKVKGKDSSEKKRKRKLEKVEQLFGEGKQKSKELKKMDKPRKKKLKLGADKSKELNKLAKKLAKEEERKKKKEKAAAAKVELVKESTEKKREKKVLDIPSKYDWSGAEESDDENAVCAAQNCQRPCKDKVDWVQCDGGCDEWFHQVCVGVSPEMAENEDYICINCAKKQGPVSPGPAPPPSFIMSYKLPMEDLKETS

IC50 (KDM5A protein; [2]) [µM] | Papp A→B at 60 min, 10 μM ([1]; read-out: MDCK-WT (Papp)) [×10⁻⁶ cm/s] | Structure (SMILES) | also measured
1 | – | CC(C)n1c(N(C)CCC2CCCO2)nn2c(-c3cn[nH]c3)cnc2c1=O (single isomer, unassigned) [EXAMPLE 62, 3-Isopropyl-2-(methyl(2-(tetrahydrofuran-2-yl)ethyl)amino)-7-(1H-pyrazol-4-yl)imidazo[2,1-f][1,2,4]triazin-4(3H)-one] | –
– | 9 | CC(c1ccccc1)c1cc(C(=O)N2CC3(C2)CN(C(=O)C2CC2)C3)n[nH]1 (single isomer, unassigned) [EXAMPLE 89, (6-(Cyclopropanecarbonyl)-2,6-diazaspiro[3.3]heptan-2-yl)(5-(1-phenylethyl)-1H-pyrazol-3-yl)methanone] | –
0.6 | 8 | CC(C)c1cc(C(=O)N2CC3(C2)CN(C(=O)C2CC2)C3C)n[nH]1 (single isomer, unassigned) [EXAMPLE 92, [2-(Cyclopropanecarbonyl)-3-methyl-2,6-diazaspiro[3.3]heptan-6-yl]-(5-isopropyl-1H-pyrazol-3-yl)methanone] | –
– | 8 | O=C(NC1CN(C(=O)c2cc(C3CC3)[nH]n2)C1)C1CC12CC2 (single isomer, unassigned) [EXAMPLE 104, N-(1-(5-cyclopropyl-1H-pyrazole-3-carbonyl)azetidin-3-yl)spiro[2.2]pentane-1-carboxamide] | –
– | – | CC(C)c1c(-c2cnn(CC3CC3)c2)[nH]c2c(C#N)cnn2c1=O [5-(1-(cyclopropylmethyl)-1H-pyrazol-4-yl)-6-isopropyl-7-oxo-4,7-dihydropyrazolo[1,5-a]pyrimidine-3-carbonitrile, reference compound] | IC50 (KDM5A protein; [3]): 0.005 µM; Papp A→B at 60 min, 10 μM [1, 4]: 5.6 ×10⁻⁶ cm/s
– | – | CC(C)c1cc(C(=O)N2CC[C@@H](NC(=O)C3CC3)C2)[nH]n1 [(R)—N-(1-(3-isopropyl-1H-pyrazole-5-carbonyl)pyrrolidin-3-yl)cyclopropane carboxamide, reference compound] | IC50 (KDM5A protein; [3]): 0.02 µM; Papp A→B at 60 min, 10 μM [1, 4]: 4.9 ×10⁻⁶ cm/s
0.04 | 23 | CC(C)n1c(N2CC(c3ccccc3)C2)nn2c(-c3cnc[nH]3)cnc2c1=O [EXAMPLE 8, 7-(1H-imidazol-5-yl)-3-isopropyl-2-(3-phenylazetidin-1-yl)imidazo[2,1-f][1,2,4]triazin-4(3H)-one] | –
0.03 | – | CC(C)n1c(-c2cnn(CC3CC3)c2)nn2c(-c3cnc[nH]3)cnc2c1=O [EXAMPLE 19, 2-(1-(Cyclopropylmethyl)-1H-pyrazol-4-yl)-7-(1H-imidazol-5-yl)-3-isopropylimidazo[2,1-f][1,2,4]triazin-4(3H)-one] | –
0.04 | 25 | CC(C)n1c(-c2cnn(CC3CC3)c2)nn2c(-c3cn[nH]c3)cnc2c1=O [EXAMPLE 20, 2-(1-(Cyclopropylmethyl)-1H-pyrazol-4-yl)-3-isopropyl-7-(1H-pyrazol-4-yl)imidazo[2,1-f][1,2,4]triazin-4(3H)-one] | –
0.04 | 10 | CC(C)n1c(-c2ccc3c(ccn3C)c2)nn2c(-c3cn[nH]c3)cnc2c1=O [EXAMPLE 21, 3-Isopropyl-2-(1-methyl-1H-indol-5-yl)-7-(1H-pyrazol-4-yl)imidazo[2,1-f][1,2,4]triazin-4(3H)-one] | –
0.2 | 20 | CC(C)n1c(-c2cccs2)nn2c(-c3cnc[nH]3)cnc2c1=O [EXAMPLE 26, 7-(1H-Imidazol-5-yl)-3-isopropyl-2-(thiophen-2-yl)imidazo[2,1-f][1,2,4]triazin-4(3H)-one] | –
0.05 | – | CC(C)n1c(-c2cccs2)nn2c(-c3cn[nH]c3)cnc2c1=O [EXAMPLE 27, 3-Isopropyl-7-(1H-pyrazol-4-yl)-2-(thiophen-2-yl)imidazo[2,1-f][1,2,4]triazin-4(3H)-one] | –
0.3 | 37 | CC(C)n1c(-c2cnn(CC3CC3)c2)nc2c(C(N)=O)ccnc2c1=O [EXAMPLE 30, 2-(1-(Cyclopropylmethyl)-1H-pyrazol-4-yl)-3-isopropyl-4-oxo-3,4-dihydropyrido[3,2-d]pyrimidine-8-carboxamide] | –
0.2 | 64 | CC(C)n1c(-c2ccccc2)nc2c(C(N)=O)ccnc2c1=O [EXAMPLE 31, 3-isopropyl-4-oxo-2-phenyl-3,4-dihydropyrido[3,2-d]pyrimidine-8-carboxamide] | –
0.03 | – | CCNC(=O)N1CC2(C1)CN(C(=O)c1cc(C(C)C)[nH]n1)C2 [EXAMPLE 41, N-Ethyl-6-(5-isopropyl-1H-pyrazole-3-carbonyl)-2,6-diazaspiro[3.3]heptane-2-carboxamide] | –
0.05 | – | CC(=O)NCCn1cc(-c2nn3c(-c4cn[nH]c4)cnc3c(=O)n2C(C)C)cn1 [EXAMPLE 47, N-(2-(4-(3-isopropyl-4-oxo-7-(1H-pyrazol-4-yl)-3,4-dihydroimidazo[2,1-f][1,2,4]triazin-2-yl)-1H-pyrazol-1-yl)ethyl)acetamide] | –
2.9 | – | Cc1ccc(-n2cc(-c3cnc4c(=O)n(C(C)C)c(C)nn34)cn2)nc1 [EXAMPLE 67, 3-Isopropyl-2-methyl-7-(1-(5-methylpyridin-2-yl)-1H-pyrazol-4-yl)imidazo[2,1-f][1,2,4]triazin-4(3H)-one] | –
0.4 | – | CC(C)c1cc(C(=O)c2cnn3c(=O)c(C(C)C)c(-c4ccccc4)n(C)c23)n[nH]1 [EXAMPLE 68, 6-Isopropyl-3-(5-isopropyl-1H-pyrazole-3-carbonyl)-4-methyl-5-phenylpyrazolo[1,5-a]pyrimidin-7 (4H)-one] | –
– | 16 | O=C(c1cc(C2CCCCC2)[nH]n1)N1CC2(C1)CN(C(=O)C1CC1)C2 [EXAMPLE 73, (5-Cyclohexyl-1H-pyrazol-3-yl)(6-(cyclopropanecarbonyl)-2,6-diazaspiro[3.3]heptan-2-yl)methanone] | –
0.2 | – | CC(C)c1cc(C(=O)N2CC(NC(=O)C3CC3)C2)n[nH]1 [EXAMPLE 80, N-(1-(5-Isopropyl-1H-pyrazole-3-carbonyl)azetidin-3-yl)cyclopropanecarboxamide] | –
0.1 | – | CC(C)n1cnc(C(=O)N2CC3(C2)CN(C(=O)C2CC2)C3)c1 [EXAMPLE 81, (6-(Cyclopropanecarbonyl)-2,6-diazaspiro[3.3]heptan-2-yl)(1-isopropyl-1H-imidazol-4-yl)methanone] | –
0.03 | – | CC(C)c1cc(C(=O)N2CC3(C2)CN(C(=O)C2(C)CC2)C3)n[nH]1 [EXAMPLE 96, (5-Isopropyl-1H-pyrazol-3-yl)(6-(1-methylcyclopropane-1-carbonyl)-2,6-diazaspiro[3.3]heptan-2-yl)methanone] | –
– | 20 | CC(C)c1cc(C(=O)N2CC3(C2)CN(C(=O)c2cccs2)C3)n[nH]1 [EXAMPLE 99, (5-Isopropyl-1H-pyrazol-3-yl)(6-(thiophene-2-carbonyl)-2,6-diazaspiro[3.3]heptan-2-yl)methanone] | –
0.09 | – | CC(=O)NCCn1cc(-c2nn3c(-c4c[nH]cn4)cnc3c(=O)n2C(C)C)cn1 [EXAMPLE 121, N-(2-(4-(7-(1H-Imidazol-4-yl)-3-isopropyl-4-oxo-3,4-dihydroimidazo[2,1-f][1,2,4]triazin-2-yl)-1H-pyrazol-1-yl)ethyl)acetamide] | –
0.008 | – | CC(C)c1cc(C(=O)N2CC3(C2)CN(C(=O)c2nn(C)cc2F)C3)n[nH]1 [EXAMPLE 126, [2-(4-Fluoro-1-methyl-pyrazole-3-carbonyl)-2,6-diazaspiro[3.3]heptan-6-yl]-(5-isopropyl-1H-pyrazol-3-yl)methanone] | –
– | 19 | CC(C)c1cc(C(=O)N2CC3(CON(C(=O)C(C)(C)C)C3)C2)n[nH]1 [EXAMPLE 132, 1-[2-(5-Isopropyl-1H-pyrazole-3-carbonyl)-6-oxa-2,7-diazaspiro[3.4]octan-7-yl]-2,2-dimethyl-propan-1-one] | –
